US7863446B2, “Heterocycles” (Orchid Research Laboratories Limited, priority 2006, dated 2011)

How the values were obtained:
[1] = molecular target: T1, COX-2 (Homo sapiens, UniProt P35354); assay: Human whole blood assay (PGE-2 inhibition, COX-2); type: cell-based; conditions: LPS stimulated human whole blood, NA = No activity, read-out: % PGE-2 Inhibition in hWBA
T1 construct: Fresh blood was collected in tubes containing sodium heparin by vein puncture from healthy male volunteers; endogenous in cells; host or cells: human whole blood from healthy male volunteers, stimulated with LPS
T1 sequence (P35354 18-604): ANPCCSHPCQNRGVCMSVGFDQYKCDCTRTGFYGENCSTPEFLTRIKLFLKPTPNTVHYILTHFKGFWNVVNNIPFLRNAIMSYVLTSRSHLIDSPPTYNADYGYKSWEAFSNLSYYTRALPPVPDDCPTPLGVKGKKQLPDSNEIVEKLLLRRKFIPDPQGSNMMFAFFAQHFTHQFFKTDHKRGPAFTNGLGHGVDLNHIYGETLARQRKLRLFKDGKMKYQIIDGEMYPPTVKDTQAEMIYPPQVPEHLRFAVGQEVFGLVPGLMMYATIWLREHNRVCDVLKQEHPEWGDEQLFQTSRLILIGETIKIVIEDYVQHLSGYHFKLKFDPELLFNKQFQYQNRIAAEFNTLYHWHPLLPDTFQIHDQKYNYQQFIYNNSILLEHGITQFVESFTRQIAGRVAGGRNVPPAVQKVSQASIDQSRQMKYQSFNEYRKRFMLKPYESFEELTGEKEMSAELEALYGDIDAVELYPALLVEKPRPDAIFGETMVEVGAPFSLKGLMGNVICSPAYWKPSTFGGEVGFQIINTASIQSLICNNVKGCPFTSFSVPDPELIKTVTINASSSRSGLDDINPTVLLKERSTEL
Procedure: In Vitro Evaluation of Cyclooxygenase-2 (Cox-2) Inhibition Activity
The COX-2 inhibition activities of the compounds illustrated in the examples were determined by the following method.
Human whole blood provides a protein and cell rich milieu appropriate for the study of the biochemical efficacy of anti-inflammatory compounds such as selective COX-2 inhibitors. […] This correlates with the observation that COX-2 inhibitors have no effect on prostaglandin E2 (PGE2) production in normal blood. These inhibitors were active only after incubation of human blood with lipopolysaccharide (LPS), which induces COX-2 production in the blood.
Fresh blood was collected in tubes containing sodium heparin by vein puncture from healthy male volunteers. The subjects should have no apparent inflammatory conditions and should have not taken NSAIDs for at least 7 days prior to blood collection. Blood was preincubated with aspirin in vitro (12 μg/ml, at time zero) to inactivate COX-1 for 6 hours. Then test compounds (at various concentrations) or vehicle were added to blood, the blood was stimulated with LPS B:4 (10 μg/ml) and incubated for another 18 hours at 37° C. water bath. After which the blood was centrifuged, plasma was separated and stored at −80° C. (J. Pharmacol. Exp. Ther, 271, 1705, 1994; Proc. Natl. Acad. Sci. USA, 96, 7563, 1999). The plasma was assayed for PGE2 using Cayman ELISA kit as per the procedure outlined by the manufacturer (Cayman Chemicals, Ann Arbor, USA).

[2] = test system: IL-6; assay: In vitro measurement of IL-6 in human PBMC (LPS stimulated); type: cell-based
Procedure: In Vitro Measurement of Interleukin-6(IL-6)
This assay determins the effect of test compounds on the production of IL-6 in human PBMC (Physiol. Res. 52: 593-598, 2003). Compounds were tested for their ability to inhibit the activity of IL-6 in human PBMC. PBMC were isolated from blood using BD Vacutainer CPT™ Cell preparation tube (BD Bio Science) and suspended in RPMI medium. The test compounds were pre-incubated with PBMC (0.5 million/incubation well) for 15 minutes at 37° C. and then stimulated with Lipopolysaccharide (Escherichia coli: B4; 1 μg/ml) for 18 hours at 37° C. in 5% CO2. The levels of IL-6 in cell culture medium were estimated using enzyme-linked immunosorbent assay performed in a 96 well format as per the procedure of the manufacturer (Cayman Chemical, Ann Arbor, USA).

[3] = test system: TNF-α; assay: In vitro measurement of TNF-α in human PBMC (LPS stimulated); type: cell-based; conditions: for inhibition at 1 µM: NA = No activity, read-out: TNF-α Inhibition (%) at Conc. (1 μM); for inhibition at 10 µM: read-out: TNF-α Inhibition (%) at Conc. (10 μM)
Procedure: In Vitro Measurement of Tumor Necrosis Factor Alpha (TNF-α)
This assay determines the effect of test compounds on the production of TNF α in human Peripheral Blood Mononuclear Cells (PBMC). Compounds were tested for their ability to inhibit the activity of TNF α in human PBMC. PBMC were isolated from blood (of healthy volunteers) using BD Vacutainer CPT™ (Cell preparation tube, BD Bio Science) and suspended in RPMI medium (Physiol. Res. 52: 593-598, 2003). The test compounds were pre-incubated with PBMC (0.5 million/incubation well) for 15 minutes at 37° C. and then stimulated with Lipopolysaccharide (Escherichia coli: B4; 1 μg/ml) for 18 hours at 37° C. in 5% CO2. The levels of TNF-α in the cell culture medium were estimated using enzyme-linked immunosorbent assay performed in a 96 well format as per the procedure of the manufacturer (Cayman Chemical, Ann Arbor, USA).

[4] = test system: TNF-α; assay: LPS induced sepsis for measurement of TNF-α inhibition in mice; type: in vivo; conditions: 50 mg/kg, oral, mice, serum 90 minutes after LPS
Procedure: LPS Induced Sepsis for Measurement of TNF-α Inhibition in Mice
The LPS induced sepsis model in mice was performed as described by Les sekut et al (J Lab Clin Med 1994; 124:813-20). Female Swiss albino mice were selected and the body weights were equivalent within each group. The mice were fasted for 20 hours with free access to water. The mice were dosed orally with the test compound suspended in vehicle containing 0.5% Tween 80 in 0.25% Carboxy-methylcellulose sodium salt. The control mice were administered the vehicle alone. After 30 minutes of oral dosing, mice were injected with 500 μg of Lipopolysaccharide (Escherichia coli, LPS: B4 from Siga) in phosphate buffer saline solution into the intraperitoneal cavity of the mice. After 90 minutes of LPS administration mice were bled via retro-orbital sinus puncture. Blood samples were stored overnight at 4° C. Serum samples were collected by centrifuging the samples at 4000 rpm for 15 minutes at 4° C. Immediately the serum samples were analysed for TNF-α levels using commercially available mouse TNF-α ELISA kit (Amersham Biosciences) and assay was performed by the manufacturer instruction.
ED50 Measurement of TNF alpha Inhibition in Mice Sepsis Model

[5] = molecular target: purified recombinant COX-1 (Homo sapiens, UniProt P23219); assay: COX-1 enzyme based assay; type: biochemical; conditions: NA = No activity, read-out: % Inhibition in rEnzyme Assay COX-1
Procedure: (§1) COX-1 and COX-2 Enzyme Based Assay
(§2) COX-1 and COX-2 enzyme based assays were carried out to check the inhibitory potential of the test compounds on the production of prostaglandin by purified recombinant COX-1/COX-2 enzyme (Proc. Nat. Acad. Sci. USA, 88, 2692-2696, 1991; J. Clin. Immunoassay 15, 116-120, 1992) In this assay, the potential of the test compound to inhibit the production of prostaglandin either by COX-1 or COX-2 from arachidonic acid (substrate) was measured. This was an enzyme based in-vitro assay to evaluate selective COX inhibition with good reproducibility.
(§3) Arachidonic acid was converted to PGH2 (Intermediate product) by COX1/COX-2 in the presence or absence of the test compound. The reaction was carried out at 37° C. and after 2 minutes it was stopped by adding 1M HCl. Intermediate product PGH2 was converted to a stable prostanoid product PGF2αby SnCl2 reduction. The amount of PGF2α, produced in the reaction was inversely proportional to the COX inhibitory potential of the test compound. The prostanoid product was quantified via enzyme immunoassay (EIA) using a broadly specific antibody that binds to all the major forms of prostaglandin, using Cayman ELISA kit as per the procedure outlined by the manufacturer (Cayman Chemicals, Ann Arbor, USA).

[6] = molecular target: T2, purified recombinant COX-2 (Homo sapiens, UniProt P35354); assay: COX-2 enzyme based assay; type: biochemical; conditions: NA = No activity, read-out: % Inhibition in rEnzyme Assay COX-2
T2 sequence (P35354 18-604): T1 sequence (P35354 18-604)
Procedure: as §1, §2, §3

[7] = test system: PDE4; assay: PDE4 activity; type: biochemical; conditions: source Human U937 cells
Procedure: PDE4 Activity PDE4 inhibition was measured by following a literature assay procedure (Cortizo J et al., Br J Pharmacol., 1993, 108: 562-568. The assay method involves the following conditions. • Source: Human U937 cells • Substrate: 1.01 μM [^3H] camp+camp • Vehicle: 1% DMSO • Pre-Incubation Time/Temperature: 15 minutes at 25° C. • Incubation Time/Temperature. 20 minutes at 25° C. • Incubation buffer: 50 mM Tris-HCl, pH 7.5, 5 mM MgCl2 • Quantitation method: Quantitation of [^3H] Adenosine • Significance criteria: >50% of max stimulation or inhibition The results are tabulated as shown in the table XIII.

purified recombinant COX-1, sequence (P23219 24-599): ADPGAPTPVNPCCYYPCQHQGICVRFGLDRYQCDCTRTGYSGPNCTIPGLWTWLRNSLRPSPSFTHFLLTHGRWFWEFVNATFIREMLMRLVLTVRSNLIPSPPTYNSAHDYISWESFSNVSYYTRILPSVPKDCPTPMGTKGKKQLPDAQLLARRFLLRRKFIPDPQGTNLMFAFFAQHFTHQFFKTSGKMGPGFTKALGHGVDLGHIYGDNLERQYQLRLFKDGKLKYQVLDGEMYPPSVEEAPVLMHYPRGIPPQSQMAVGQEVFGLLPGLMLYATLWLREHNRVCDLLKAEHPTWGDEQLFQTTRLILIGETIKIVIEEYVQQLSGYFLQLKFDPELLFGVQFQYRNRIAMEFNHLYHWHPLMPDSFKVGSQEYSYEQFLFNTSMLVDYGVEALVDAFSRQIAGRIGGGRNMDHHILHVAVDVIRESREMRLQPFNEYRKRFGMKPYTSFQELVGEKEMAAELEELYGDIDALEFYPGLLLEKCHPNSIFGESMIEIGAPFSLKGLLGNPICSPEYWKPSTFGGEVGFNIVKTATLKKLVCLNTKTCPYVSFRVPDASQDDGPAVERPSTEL

inhibition at 10 µM [5]	inhibition at 10 µM [6]	SMILES	TNF-α Inhibition (%) at 50 mg/kg [4]	PDE4 inhibition at 10 μM (%) [7]	also measured
–	–	CS(=O)(=O)c1ccc(-c2nc(C(F)(F)F)nc(NN)c2-c2ccc(S(=O)(=O)NN)cc2)cc1 [Example 7, 4-{4-Hydrazino-6-[4-(methylsulfonyl)phenyl]-2-(trifluoromethyl)pyrimidin-5-yl}benzenesulfonohydrazide]	–	–	inhibition at 0.25 µM ([1]; 0.25 μM): 26.2%; inhibition at 1 µM ([1]; 1 μM): 1.9%; melting point: 203 to 206 °C
–	–	CS(=O)(=O)c1ccc(-c2nc(C(F)(F)F)nc(OS(=O)(=O)c3cccc4ccccc34)c2-c2ccccc2)cc1 [Example 18, 6-[4-(Methylsulfonyl)phenyl]-5-phenyl-2-(trifluoromethyl)pyrimidin-4-ylnapthalenesulfonate]	–	–	inhibition at 1 µM ([2]; 1 μM, read-out: IL-6 Inhibition (%) Conc. (1 μM)): 32.8%; inhibition at 10 µM ([2]; 10 μM, read-out: IL-6 Inhibition (%) Conc. (10 μM)): 41%; melting point: 204 to 206 °C
–	–	NS(=O)(=O)c1ccc(-c2c(-c3ccc(F)cc3)nc(C(F)(F)F)nc2N2CCNCC2)cc1 [Example 30, 4-[4-(4-Fluorophenyl)-6-piperazin-1-yl-2-(trifluoromethyl)pyrimidin-5-yl]benzenesulfonamide]	84.84%	–	inhibition at 1 µM [3]: 43.2%; inhibition at 10 µM [3]: 100%
56.9%	26.7%	NS(=O)(=O)c1cccc(-c2c(-c3ccc(F)cc3)nc(C(F)(F)F)nc2N2CCN(c3ccccn3)CC2)c1 [Example 53, 3-[4-(4-Fluorophenyl)-6-(4-pyridin-2-ylpiperazin-1-yl)-2-(trifluoromethyl)pyrimidin-5-yl]benzenesulfonamide]	70.93%	–	inhibition at 1 µM [5]: 46.3%; inhibition at 1 µM [6]: 20%
45.5%	13.7%	NS(=O)(=O)c1cccc(-c2c(-c3ccc(F)cc3)nc(C(F)(F)F)nc2N2CCN(c3ncccn3)CC2)c1 [Example 54, 3-[4-(4-Fluorophenyl)-6-(4-pyrimidin-2-ylpiperazin-1-yl)-2-(trifluoromethyl)pyrimidin-5-yl]benzenesulfonamide]	63.44%	–	inhibition at 1 µM [5]: 34.4%
5.7%	0.66%	NS(=O)(=O)c1cccc(-c2c(-c3ccccc3)nc(C(F)(F)F)nc2N2CCN(c3ncccn3)CC2)c1 [Example 57]	52.02%	–	inhibition at 1 µM [6]: 8.29%; inhibition at 1 µM [3]: 84.5%; inhibition at 10 µM [3]: 88.9%
–	–	NS(=O)(=O)c1cccc(-c2c(-c3ccc(F)cc3)nc(C(F)(F)F)nc2N2CCN(S(=O)(=O)C(F)(F)F)CC2)c1 [Example 77, 5-(3-Aminosulfonylphenyl)-4-(4-fluorophenyl)-2-(trifluoromethyl)-6-{4-[(trifluoromethyl)sulfonyl]piperazin-1-yl}pyrimidine]	–	94%	–
–	–	N#CCCN1CCN(c2nc(C(F)(F)F)nc(-c3ccc(F)cc3)c2-c2cccc(S(N)(=O)=O)c2)CC1 [Example 99, 3-{4-[4-(2-Cyanoethyl)piperazin-1-yl]-6-(4-fluorophenyl)-2-(trifluoromethyl)pyrimidin-5-yl}benzenesulfonamide]	–	92%	–
–	–	NS(=O)(=O)c1cccc(-c2c(-c3ccc(F)cc3)nc(C(F)(F)F)nc2N2CCN(C(=O)C(F)(F)F)CC2)c1 [Example 108, 3-{6-(4-Fluorophenyl)-4-[4-(trifluoroacetyl)piperazin-1-yl]-2-(trifluoromethyl)pyrimidin-5-yl}benzenesulfonamide]	–	90%	–
19.2%	7.03%	NS(=O)(=O)c1cccc(-c2c(-c3ccccc3)nc(C(F)(F)F)nc2N2CCN(c3ccc(C(F)(F)F)cn3)CC2)c1 [Example 115]	54.23%	–	inhibition at 1 µM [5]: 6.29%; inhibition at 1 µM [3]: 37.8%; inhibition at 10 µM [3]: 58.3%
–	–	NS(=O)(=O)c1cccc(-c2nc(C(F)(F)F)nc(-n3ccnc3)c2-c2ccccc2)c1 [Example 166, 3-[4-(1H-imidazol-1-yl)-5-phenyl-2-(trifluoromethyl)pyrimidin-6-yl]benzenesulfonamide]	–	82%	–
